These results are taken from US8017374B2, “Processes for decolorization of colored effluents” (priority 2005, dated 2011).

Assay [1] deals with culture supernatant of NIOCC 2a. The assay is described as follows: Decolorization using culture supernatant of NIOCC 2a. Format: biochemical, unidentified marine fungus NIOCC #2a (MTCC 5159). To be noted: dyes 0.02-0.04%, 60° C., pH 6.0, supernatant concentrated two-fold. As to the method:
The process of decolorization of various dyes and effluents using the cell-free supernatant involves addition of filter sterilized culture supernatant of the said fungus grown in the presence of various dyes, inducers and dilute effluents. The decolorization of the effluents was monitored spectrophotometrically at appropriate wavelengths up to 12 hours. The uninoculated culture medium containing these dyes served as control.
NIOCC 2a was grown in B&K medium prepared in sea water of 25 ppt salinity (the pH of the medium being 7.0) for 6 days. It was supplemented with 1% textile effluent B on day 6. The culture supernatant on day 12 was collected and concentrated two-fold. The concentrated enzyme was incubated with various dyes used at concentrations as given in Example 2 and the effluents were used at 10% only. The decolorization was monitored at 6 and 12 hours by incubating the samples in a water bath at 60° C. and pH 6.0 The absorbance maxima specific to that particular dye/effluent was monitored for 6 to 12 hours.

Assay [2] relates to fungus MTCC 5159. The assay is described as follows: Decolorization of dyes and effluents by growing fungus culture. It is filed as cell-based, unidentified marine fungus NIOCC #2a (MTCC 5159). To be noted: FIG. 2a, up to day 6. An excerpt:
Black liquor is dark brown in color and after decolorization by the fungus MTCC 5159, it turns light brown after 6 days. Similarly molasses spent wash is dark brown and turns straw color after 6 days. Textile effluents A, originally magenta in color was comparatively difficult to decolorize whereas Textile effluent B, originally bottle green in color was comparatively easy to decolorize to a light green color after 6 days. The process for the decolorization of various effluents utilizing the fungal biomass involves addition of sterilized, appropriately diluted effluents to a 6 day-old culture of NIOCC 2a growing in B&K medium. The degradation of effluents and various dyes is monitored spectrophotometrically by removing an aliquot of sample from these cultures and measuring changes in absorbance at appropriate wavelengths. The decolorization is measured every alternate day up to 6 days. […]
The fungus MTCC 5159 was tested for its ability to decolorize various dyes and effluents by monitoring the change in its specific absorbance maxima every alternate day over a period of 6 days after the dye/effluents were added. […] The extent of decolorization was recorded as residual color (in percentage). […] Effluents like textile effluent A, B, MSW and black liquor were also monitored at their absorbance maxima in B&K medium, at 505, 663, 663 and 317 nm respectively.

Assay [3] is described as follows: Decolorization using exopolymeric substance produced by NIOCC 2a. Also on record: species or system unidentified marine fungus NIOCC #2a (MTCC 5159). The conditions noted are these: 24 hours, dyes 0.015-0.04%, 10 mg EPS, 60° C., phosphate buffer pH 6. The procedure: The process of decolorization of effluents using the exoploymeric substance (EPS) produced by the fungus is carried out using separated and freeze dried EPS. A known amount of EPS is incubated with appropriately diluted effluents for a period of 6 to 12 hours. The decolorization is monitored in the supernatant after centrifugation. While using the EPS, about 10 mg of EPS (dry weight) is contacted with 3 ml of effluent having the final concentration of 10%.
The exopolymeric substance (EPS) of the fungus NIOCC 2a was prepared as follows: 1 liter of a 12 day old culture filtrate was frozen for 12 to 24 hours and allowed to thaw. The EPS precipitated on thawing and was removed by decantation. Methanol at a final concentration of 70% was added to the supernatant to further precipitate the remaining EPS from the culture supernatant. The precipitated EPS was collected by centrifugation and the pooled precipitate was lyophilized. To 10 mg of this EPS, various dyes and effluents were added at concentrations as given in example 2 and incubated at 60° C. with phosphate buffer at pH 6. […]

For assay [4], the system named is NIOCC 2a. As to the kind of experiment: Enhancement of laccase production by inducers; laccase activity in culture supernatant (ABTS).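 On all read-outs here: supernatant laccase measured by 2 mM ABTS oxidation in 100 mM glycine-HCl buffer at pH 3, absorbance at 405 nm tracked over time.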 The conditions noted are these: for LACCASE ACTIVITY: dyes as inducers at 0.015-0.04%.
Protocol: The laccase activity in the culture supernatant was measured using 2 mM ABTS prepared in 100 mM glycine-HCl buffer (pH 3) at 405 nm spectrophotometrically as a function of time.
In order to enhance the laccase production by MTCC 5159 various inducers were added to a 3 day old culture grown in B&K medium prepared in 25 ppt sea water having a pH of 7.0. The inducers such as p-anisidine, catechol, guaiacol, ferulic acid, vanillic acid, veratryl alcohol and 2,5 dimethyl aniline were used at a final concentration of 1 mM. […] The laccase activity in the culture supernatant was measured at an interval of 3 days up to 21 days as described in Example 1.
Dyes which are generally used for decolorization were also tested for their laccase induction properties. Trypan blue, aniline blue and remazol brilliant blue R at a final concentration of 0.04%, methylene blue, crystal violet, brilliant green and congo red at 0.02% and reactive orange 176 at 0.015% final concentration were added to B & K medium prepared in 25 ppt sea water having the pH of 7.0.

With `CN(C)c1ccc2nc3ccc(=[N+](C)C)cc-3sc2c1` [Methylene Blue, methylene blue], the “PERCENT DECOLORIZATION” value came out at 3% in assay [1] (6 hours) and 5% in assay [1] (12 hours).

For the molecule Reactive orange 176 [RO 176], the “comparison of dye degradation by the fungus culture, in words” value in assay [2] was “least degraded”. Moreover, the “PERCENT DECOLORIZATION” value in assay [3] was found to be 100%. For the same molecule, the “LACCASE ACTIVITY” value in assay [4] (day 3) was determined as 21 UL^−1; in assay [4] (day 6) it was 8 UL^−1; in assay [4] (day 8), 335 UL^−1; in assay [4] (day 10), 949 UL^−1; in assay [4] (day 12) it was 904 UL^−1; in assay [4] (day 14), 1158 UL^−1. The results for the “LACCASE ACTIVITY” value in assay [4] (day 16) and in assay [4] (day 18) were 1108 UL^−1 and 1180 UL^−1, respectively.

Regarding `Nc1c(S(=O)(=O)[O-])cc(Nc2cccc(S(=O)(=O)CCOS(=O)(=O)[O-])c2)c2c1C(=O)c1ccccc1C2=O.[Na+].[Na+]` [RBBR, remazol brilliant blue R], the “PERCENT DECOLORIZATION” value in assay [1] (6 hours) was 67%; in assay [1] (12 hours) it was 46%; in assay [3], 100%. Also, the “LACCASE ACTIVITY” value in assay [4] (day 3) worked out at 3 UL^−1; in assay [4] (day 6), 43 UL^−1; in assay [4] (day 8) it was 0 UL^−1; in assay [4] (day 10), 0 UL^−1; in assay [4] (day 12), 0 UL^−1; in assay [4] (day 14) it was 0 UL^−1. Further, the “LACCASE ACTIVITY” value in assay [4] (day 16) and in assay [4] (day 18) was 0 UL^−1 throughout.

On to `Cc1cc(-c2ccc(/N=N/c3c(S(=O)(=O)O)cc4cc(S(=O)(=O)O)cc(N)c4c3O)c(C)c2)ccc1/N=N/c1c(S(=O)(=O)O)cc2cc(S(=O)(=O)O)cc(N)c2c1O` [Trypan Blue, Trypan blue], for which the “PERCENT DECOLORIZATION” value is recorded as 22% in assay [1] (6 hours), 25% in assay [1] (12 hours) and 79% in assay [3].

In the case of `O=S(=O)([O-])[O-].[Cu+2]` [Copper sulphate], the “comparison of inducers of laccase production, in words” value in assay [4] is given as “best inducer”.

As to `CN(C)c1ccc(C(=C2C=CC(=[N+](C)C)C=C2)c2ccc(N(C)C)cc2)cc1` [Crystal Violet, crystal violet], the figures for the “PERCENT DECOLORIZATION” value in assay [1] (6 hours), in assay [1] (12 hours) and in assay [3] were 44%, 54% and 80%, respectively.

On to aniline blue, for which the “PERCENT DECOLORIZATION” value in assay [1] (6 hours) is given as 55%; in assay [1] (12 hours), 40%; in assay [3], 75%. Also, the “LACCASE ACTIVITY” value was 12 UL^−1 in assay [4] (day 3); 67 UL^−1 in assay [4] (day 6); 21 UL^−1 in assay [4] (day 8); 825 UL^−1 in assay [4] (day 10); 1051 UL^−1 in assay [4] (day 12); 1166 UL^−1 in assay [4] (day 14). Further, the “LACCASE ACTIVITY” value in assay [4] (day 16) is 1211 UL^−1; in assay [4] (day 18), 1048 UL^−1.

`Nc1c(/N=N/c2ccc(-c3ccc(/N=N/c4cc(S(=O)(=O)O)c5ccccc5c4N)cc3)cc2)cc(S(=O)(=O)O)c2ccccc12` [Congo Red, congo red]: the “PERCENT DECOLORIZATION” value is 54% in assay [1] (6 hours), 47% in assay [1] (12 hours), 29% in assay [3] (listed as Congo red) and “not decolorized to these extents” in assay [3] (listed as congo red).
